Assay results from paper PMC11096083 (Cancer research, 2024).

Tests used:
HSD3B7 [1] = molecular target: T1, HSD3B7 (Homo sapiens, UniProt Q9H2F3); experiment: recombinant HSD3B7 activity by NAD+ reduction to NADH; format: biochemical
T1 sequence (Q9H2F3 1-369): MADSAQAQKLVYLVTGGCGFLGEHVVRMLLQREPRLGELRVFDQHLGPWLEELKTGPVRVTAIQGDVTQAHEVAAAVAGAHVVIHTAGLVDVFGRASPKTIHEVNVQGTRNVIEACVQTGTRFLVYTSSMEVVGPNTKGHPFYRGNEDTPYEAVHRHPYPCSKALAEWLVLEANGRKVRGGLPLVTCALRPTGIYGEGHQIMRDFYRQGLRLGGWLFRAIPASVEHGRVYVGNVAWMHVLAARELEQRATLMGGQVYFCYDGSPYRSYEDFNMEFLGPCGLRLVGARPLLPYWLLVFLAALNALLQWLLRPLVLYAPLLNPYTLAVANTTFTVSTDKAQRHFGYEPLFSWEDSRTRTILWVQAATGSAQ

HSD3B7 [2] = molecular target: T1, HSD3B7; experiment: recombinant HSD3B7 NAD; format: biochemical

Row | SMILES | recombinant HSD3B7 activity by NAD+ reduction to NADH (fluorescence) (HSD3B7 [1]) | IC50 (HSD3B7 [2])
1 | NC(=O)c1ccc[n+]([C@@H]2O[C@H](COP(=O)([O-])OP(=O)(O)OC[C@H]3O[C@@H](n4cnc5c(N)ncnc54)[C@H](O)[C@@H]3O)[C@@H](O)[C@H]2O)c1 [NAD+] | recombinant human HSD3B7 protein, whose enzymatic activity was assessed by monitoring fluorescence induced by NAD^+ reduction to NADH | 
2 | COc1ccc(-c2cc(=O)c3c(O)cc(O)c(-c4cc(-c5cc(=O)c6c(O)cc(O)cc6o5)ccc4OC)c3o2)cc1 [isoginkgetin] |  | low micromolar
3 | CC1=C(O)C(=O)C=C2C1=CC=C1[C@@]2(C)CC[C@@]2(C)[C@@H]3C[C@](C)(C(=O)O)CC[C@]3(C)CC[C@]12C [celastrol] |  | low micromolar
